Patent US20080279848A1, “Methods of treating lupus using CD4 antibodies” (GENENTECH, INC., priority 2006, published 2008)

What was measured:
[1] = system: NZBxW F1 mice (spontaneous lupus-like kidney disease); assay: NZBxW F1 preclinical model of SLE, treatment initiated at 9 months of age (severe disease), CD4 antibody and MMF
Method: (§1) Proteinuria was measured using a Clinitek® 50 Urine Chemistry Analyzer (Bayer Corporation, Elkhart, Ind., USA). A drop of freshly collected urine was placed on a reagent strip (Multistix® 10 SG, Bayer), and the strip was immediately inserted into the analyzer after removal of excess urine by blotting with a clean gauze sponge.
Numbers of activated CD4+ T cells found in spleen were determined by flow cytometry as follows. Whole spleens were harvested and crushed into single cell suspensions, which were then red blood cell lysed using EL buffer (erythrocyte lysis buffer, from Qiagen, Valencia, Calif., catalog number 79217), passed through a 70 micron cell strainer, and then resuspended for cell counts. A fixed volume of each cell suspension was mixed with a fluorescent bead (Polysciences, Inc., catalog number 18862) solution of known concentration. The mixture was then run on a FACScan™ flow cytometer from BD Biosciences (Franklin Lakes, N.J.). By collecting a fixed number of beads for each mixture, the total number of live cells could be calculated and subsequently used to determine total numbers of cell subpopulations for the spleen of each mouse after further FACS analysis.
Treatment of NZB×NZW mice was initiated at 9 months of age. Mice were screened for proteinuria and randomized into groups based on their proteinuria scores. […] Mice were monitored for changes in proteinuria (urinalysis was performed as described above in Example 1), disease progression, and survival. […] MMF was given IP at either 25 mg/kg daily or 50 mg/kg daily (alone or in combination with the CD4 antibody).
CD4^+ T cell and B2 B cell numbers were determined by flow cytometry basically as described above, using antibodies to identify the various cell populations and then using the percentage of each population represented (of total lymphocytes) multiplied by the total number of lymphocytes to determine the number of each population. B2 cells (the majority of B cells) were identified by positive staining for B220 (CD45) and CD38. Anti-B220/CD45 and anti-CD38 were from BD Pharmingen.
Comparisons were performed using Dunnett's method with the control antibody treated group as the reference control group (designated in bold), and only p values for groups that achieve statistical significance vs. the reference control are designated on the graph.

[2] = system: NZBxW F1 mice (spontaneous lupus-like kidney disease); assay: NZBxW F1 preclinical model of SLE, treatment initiated at 8 months of age (moderate-severe disease); format: in vivo, mouse; conditions: over time after treatment; CTX 50 mg/kg IP every 10 days; FIG. 7A
Text: The control antibody was an irrelevant mouse IgG1 antibody (a mouse antibody was used for the control since an irrelevant rat antibody would elicit an immune response against itself, influencing the course of disease; the rat anti-CD4 antibody prevents such a response to itself).
At 8 months of age, NZB×NZW mice were screened for proteinuria and randomized into 5 groups based on their proteinuria scores. At this age, disease is considered to be moderate-severe. At the onset of the experiment, each group of 19 mice was composed of the following distribution of protein concentrations in the urine: 32% at >300 mg/dl; 24% at 100-300 mg/dl; and 44% at 30-100 mg/dl. […] Mice were monitored for changes in urine protein concentration (e.g., proteinuria), Blood Urea Nitrogen (BUN), and survival.
as §1
Blood urea nitrogen was measured using a Cobas Integra® 400 chemistry analyzer (Roche Diagnostics, Basel, Switzerland) and urea detection reagent (also supplied by Roche Diagnostics) according to the manufacturer's instructions. […]

[3] = system: SJL/J mice with PLP-139-151 peptide induced EAE; assay: Relapsing and remitting EAE induced by PLP peptide in SJL/J mice (model of MS); format: in vivo, mouse; conditions: treatment initiated at day 14 (peak of disease), CD4 antibody = murinized YTS177; FIG. 12
Text: Experimental autoimmune encephalomyelitis (EAE) is an inflammatory condition of the central nervous system (CNS) with similarities to MS; in both diseases, demyelination results in impaired nerve conduction and paralysis. Relapsing and remitting EAE induced by injection of proteolipid protein (PLP) peptide in SJL/J mice provides a useful preclinical efficacy model of MS (see, e.g., Miller and Karpus (1996) “Experimental Autoimmune Encephalomyelitis in the Mouse” in Current Protocols in Immunology, Coligan et al. (eds.), John Wiley & Sons, Inc. and Sobel et al. (1990) “Acute experimental allergic encephalomyelitis in SJL/J mice induced by a synthetic peptide of myelin proteolipid protein” J Neuropathol Exp Neurol. 49(5):468-79).
FIG. 10 schematically illustrates progression of the disease over time after injection of the PLP peptide in this model. Injection at day 0 is followed by disease onset (days 0-15), remission (days 15-25), and relapse (day 25-termination of the study at days 60-70). […]
Numbers of effector/memory cells in the blood were determined by flow cytometry as follows. […]
To 1×10^6 cells, a saturating amount of fluorophore-conjugated antibodies were added and incubated on ice for 30 minutes, followed by washing with cold buffer. […] Samples were analyzed by flow cytometry on a FACSCalibur from BD Biosciences. […]

COc1c(C)c2c(c(O)c1C/C=C(\C)CCC(=O)OCCN1CCOCC1)C(=O)OC2 [MMF, 2-morpholinoethyl (E)-6-(1,3-dihydro-4-hydroxy-6-methoxy-7-methyl-3-oxo-5-isobenzofuranyl)-4-methyl-4-hexenoate]
blood B2 B cell numbers ([1]; 25 mg/kg MMF, may not be statistically significant, FIG. 20B): increase | proteinuria, multiple comparison analysis (Dunnett's method) vs control antibody ([1]; month 2 of treatment, MMF 50 or 25 mg/kg daily, FIG. 19): did not show statistically significant reduction in proteinuria | capacity to reverse severe proteinuria (mice reversed from 300 mg/dl proteinuria) ([1]; one month of treatment, MMF 25 or 50 mg/kg daily IP, YTS177 5 mg/kg 3x/week, FIG. 17B): not sufficient to reverse severe proteinuria significantly | mice exhibiting >300 mg/dl proteinuria (reversal of nephritis symptoms in very late stage disease) ([1]; over time after treatment, FIG. 17A): not observed

O=P1(N(CCCl)CCCl)NCCCO1 (stereo not drawn) [cyclophosphamide]
mice exhibiting >300 mg/dl proteinuria (reversal of nephritis symptoms in very late stage disease) [2]: not observed

glatiramer acetate
clinical score [3]: ineffective
